Assay results reported in patent publication US9994556B2, “Triazole modified coumarin and biphenyl amide-based HSP90 inhibitors” (THE UNIVERSITY OF KANSAS, priority 2014, dated 2018).
Read-outs that look alike come from different tables or passages of the source.

Key:
Format in all cases: cell-based
PC3-MM2 cells = assay: Sulforhodamine B assay, PC3-MM2; conditions: Homo sapiens, PC3MM2, mean ± standard deviation
Protocol: (§1) c) Sulforhodamine B Assay
(§2) The sulforhodamine B assay is used to measure drug-induced cytotoxicity and cell proliferation for large-scale drug-screening applications. Its principle is based on the ability of the protein dye sulforhodamine B to bind electrostatically on pH dependent protein basic amino acid residues of trichloroacetic acid-fixed cells. The aim is to evaluate samples showing selective growth inhibition or cell killing of particular tumor cell lines.
(§3) The SRB assay is performed by treating cells using a 10 point dose-response curve. The cells are fixed with trichloroacetic acid solution and stained with sulforhodamine B dye. The stained cells are then solubilized with 10 mM Tris buffer and read for absorbance at 565 nm.
(§4) Percentage growth is calculated at each of the drug concentration levels using the absorbance raw data.
(§5) Percentage growth inhibition is calculated as: [(Ti−Tz)/(C−Tz)]×100 for concentrations for which Ti≥Tz. [(Ti−Tz)/(Tz)]×100 for concentrations for which Ti<Tz.
(§6) Ti=Absorbance of wells at a given drug concentration level.
(§7) Tz=Absorbance time zero wells
(§8) C=Absorbance of untreated wells (media and cells only)
(§9) After growth inhibition values have been calculated, the data is plotted on Graphpad Prism software. Data is entered and plotted on a sigmoidal dose-response curve using non-linear regression.

MDA1986 cell line = assay: Promega CellTiter-Glo (CTG) luminescent assay, MDA1986; conditions: 72 hr, mean ± standard deviation, read-out: IC50 MDA1986
Protocol: (§10) b) Promega CellTiter-Glo (CTG) Luminescent Assay
(§11) Antiproliferative activities against MDA-MB-468LN, MDA1986 and JMAR cell lines were performed with 384-well white plates with the Promega CellTiter-Glo (CTG) luminescent assay with 72 hr compound treatment. Data analysis was performed using GraphPad Prism. Selected data were further checked with MTS/PMS cell viability assay with 96-well plates, which correlated well with Promega CellTiter-Glo luminescent assay.

SKBr3 cells = assay: MTS/PMS cell viability assay, SKBr3; conditions: Homo sapiens, SK-BR-3, 72 hr, mean ± standard deviation, read-out: IC50 SKBr3
Protocol: (§12) a) MTS/PMS Cell Viability Assay (SKBr3 and MCF-7 Cells)
(§13) Cells were maintained in a 1:1 mixture of Advanced DMEM/F12 (Gibco) supplemented with non-essential amino acids, L-glutamine (2 mM), streptomycin (500 μg/mL), penicillin (100 units/mL), and 10% FBS. Cells were grown to confluence in a humidified atmosphere (37° C., 5% CO2), seeded (2000/well, 100 μL) in 96-well plates, and allowed to attach overnight. Compound at varying concentrations in DMSO (1% DMSO final concentration) was added, and cells were returned to the incubator for 72 hr. At 72 hr, the number of viable cells was determined using an MTS/PMS cell proliferation kit (Promega) per the manufacturer's instructions. Cells incubated in 1% DMSO were used at 100% proliferation, and values were adjusted accordingly. IC50 values were calculated from separate experiments performed in triplicate using GraphPad Prism.

MCF-7 cells = assay: MTS/PMS cell viability assay, MCF-7; conditions: Homo sapiens, MCF7, 72 hr, mean ± standard deviation, read-out: IC50 MCF-7
Protocol: as §12, §13

JMAR cell line = assay: Promega CellTiter-Glo (CTG) luminescent assay, JMAR; conditions: 72 hr, mean ± standard deviation
Protocol: as §10, §11

MDA-MB-468LN cell line = assay: Promega CellTiter-Glo (CTG) luminescent assay, MDA-MB-468LN; conditions: Homo sapiens, 72 hr, mean ± standard deviation
Protocol: as §10, §11

LNCaP cells = assay: Sulforhodamine B assay, LNCaP; conditions: Homo sapiens, mean ± standard deviation
Protocol: as §1, §2, §3, §4, §5, §6, §7, §8, §9

[1] = Table 2 biphenyl triazole analogues
[2] = Table 1 coumarin-based triazoles
[3] = Table 1 coumarin-based triazoles, at least two experiments in triplicate

| SMILES | IC50 (PC3-MM2 cells; [1]) [nM] | IC50 (SKBr3 cells; [1]) [nM] | IC50 (MCF-7 cells; [1]) [nM] | IC50 (MDA-MB-468LN cell line; [1]) [nM] | IC50 (LNCaP cells; [1]) [nM] | IC50 (PC3-MM2 cells; [2]) [nM] | IC50 (SKBr3 cells; [3]) [nM] | IC50 (MCF-7 cells; [2]) [nM] | IC50 (MDA-MB-468LN cell line; [2]) [nM] | IC50 (LNCaP cells; [2]) [nM] | IC50 (MDA1986 cell line; [1]) [nM] | IC50 (JMAR cell line; [1]) [nM] | IC50 (MDA1986 cell line; [2]) [nM] | IC50 (JMAR cell line; [2]) [nM] |
| --- | --- | --- | --- | --- | --- | --- | --- | --- | --- | --- | --- | --- | --- | --- |
| Cc1c(OC2CCN(C)CC2)ccc2cc(NC(=O)c3cn(Cc4ccccc4Cl)nn3)c(=O)oc12 [4p, 1-(2-Chlorobenzyl)-N-(8-methyl-7-((1-methylpiperidin-4-yl)oxy)-2-oxo-2H-chromen-3-yl)-1H-1,2,3-triazole-4-carboxamide] | – | – | – | – | – | 6660 ± 5440 | 1300 ± 70 | 990 ± 80 | 2100 ± 520 | > 100000 | – | – | 3200 ± 1370 | 3700 ± 850 |
| Cc1ccc(Cn2cc(C(=O)Nc3cc4ccc(OC5CCN(C)CC5)c(C)c4oc3=O)nn2)cc1 [4i, 1-(4-Methylbenzyl)-N-(8-methyl-7-((1-methylpiperidin-4-yl)oxy)-2-oxo-2H-chromen-3-yl)-1H-1,2,3-triazole-4-carboxamide] | – | – | – | – | – | 7320 ± 5440 | 1210 ± 70 | 1500 ± 190 | 2400 ± 250 | 7240 ± 1020 | – | – | 1500 ± 200 | 1800 ± 950 |
| Cc1c(OC2CCN(C)CC2)ccc2cc(NC(=O)c3cn(CCCc4ccccc4)nn3)c(=O)oc12 [4s, N-(8-methyl-7-((1-methylpiperidin-4-yl)oxy)-2-oxo-2H-chromen-3-yl)-1-(3-phenylpropyl)-1H-1,2,3-triazole-4-carboxamide] | – | – | – | – | – | – | 1730 ± 50 | 1650 ± 30 | – | – | – | – | – | – |

The next lines start with results.

| IC50 (PC3-MM2 cells; [1]) [nM] | IC50 (SKBr3 cells; [1]) [nM] | IC50 (MCF-7 cells; [1]) [nM] | IC50 (MDA-MB-468LN cell line; [1]) [nM] | IC50 (LNCaP cells; [1]) [nM] | IC50 (PC3-MM2 cells; [2]) [nM] | IC50 (SKBr3 cells; [3]) [nM] | IC50 (MCF-7 cells; [2]) [nM] | IC50 (MDA-MB-468LN cell line; [2]) [nM] | IC50 (LNCaP cells; [2]) [nM] | SMILES | IC50 (MDA1986 cell line; [1]) [nM] | IC50 (JMAR cell line; [1]) [nM] | IC50 (MDA1986 cell line; [2]) [nM] | IC50 (JMAR cell line; [2]) [nM] |
| --- | --- | --- | --- | --- | --- | --- | --- | --- | --- | --- | --- | --- | --- | --- |
| 550 ± 370 | 320 ± 20 | 160 ± 20 | 190 ± 50 | 160 | – | – | – | – | – | COc1cccc(Cn2cc(C(=O)Nc3ccc(-c4ccc(OC5CCN(C)CC5)cc4)cc3)nn2)c1 [5l, 1-(3-Methoxybenzyl)-N-(4′-((1-methylpiperidin-4-yl)oxy)-[1,1′-biphenyl]-4-yl)-1H-1,2,3-triazole-4-carboxamide] | 280 ± 90 | 210 ± 120 | – | – |
| 830 ± 340 | 190 ± 20 | 380 ± 100 | 360 ± 40 | 430 ± 220 | – | – | – | – | – | CN1CCC(Oc2ccc(-c3ccc(NC(=O)c4cn(CCc5ccccc5)nn4)cc3)cc2)CC1 [5c, N-(4′-((1-methylpiperidin-4-yl)oxy)-[1,1′-biphenyl]-4-yl)-1l-phenethyl-1H-1,2,3-triazole-4-carboxamide] | 100 ± 230 | 580 ± 460 | – | – |
| 4260 ± 5590 | 1140 ± 100 | 1440 ± 180 | 830 ± 160 | 3890 ± 1090 | – | – | – | – | – | CN1CCC(Oc2ccc(-c3ccc(NC(=O)c4cn(-c5ccccc5)nn4)cc3)cc2)CC1 [5a, N-(4′-((1-methylpiperidin-4-yl)oxy)-[1,1′-biphenyl]-4-yl)-1-phenyl-1H-1,2,3-triazole-4-carboxamide] | 1300 ± 90 | 2200 ± 240 | – | – |
| 350 ± 120 | 160 ± 10 | 200 ± 50 | 150 ± 20 | 50 ± 40 | – | – | – | – | – | Cc1ccc(Cn2cc(C(=O)Nc3ccc(-c4ccc(OC5CCN(C)CC5)cc4)cc3)nn2)c(Cl)c1 [5n, 1-(2-Chloro-4-methylbenzyl)-N-(4′-((1-methylpiperidin-4-yl)oxy)-[1,1′-biphenyl]-4-yl)-1H-1,2,3-triazole-4-carboxamide] | 150 ± 60 | 430 ± 250 | – | – |
| 2810 ± 1820 | 720 ± 180 | 1040 ± 80 | 1090 ± 230 | 1640 ± 970 | – | – | – | – | – | CN1CCC(Oc2ccc(-c3ccc(NC(=O)c4cn(Cc5ccc(F)cc5)nn4)cc3)cc2)CC1 [5j, 1-(4-Fluorobenzyl)-N-(4′-((1-methylpiperidin-4-yl)oxy)-[1,1′-biphenyl]-4-yl)-1H-1,2,3-triazole-4-carboxamide] | 930 ± 340 | 1390 ± 520 | – | – |
| 1030 ± 160 | 450 ± 40 | 550 ± 10 | 560 ± 250 | 600 ± 340 | – | – | – | – | – | CN1CCC(Oc2ccc(-c3ccc(NC(=O)c4cn(Cc5ccc([N+](=O)[O-])cc5)nn4)cc3)cc2)CC1 [5i, 1-(4-Nitrobenzyl)-N-(4′-((1-methylpiperidin-4-yl)oxy)-[1,1′-biphenyl]-4-yl)-1H-1,2,3-triazole-4-carboxamide] | 190 ± 170 | 210 ± 350 | – | – |
